# According to patent US5026836A, “6-sulfenamide, 6-sulfinamide and 6-sulfonamide purines, purine nucleosides, purine nucleotides, pharmaceutical compositions, and processes of making” (priority 1988, dated 1991):
# “Also recorded” adds a separate entry of the source. Read-outs that look alike come from different tables or passages of the source.
# Experiments:
# L1210 cells [1] = experiment: Bioassay of viable L1210 cells in brain after intracranial inoculation and ip drug; format: in vivo, mouse; conditions: for Residual cells (% of control brain): 24 hr after single ip dose (mg/kg): Methotrexate 12, Adriamycin 3, 6-Mercaptopurine 160, Cytosine Arabinoside 1200, Cyclophosphamide 140, Compound 19 173, Tiazofurin 1200, BCNU 20; for intracranial activity: intracranial L1210; for Activity against I.C. L1210 cells, Cell Kill: ip dosage: Compound 18 22 mg/kg, Compound 19 173 mg/kg, Compound 20 62 mg/kg; for crossing of blood brain barrier / CNS penetration (words): mouse, in vivo
# Source text: BDF1 mice were inoculated intracranially on day 0 with 1×10^5 L1210 cells. […] 24 hr after drug delivery the brains were collected, homogenized, and injected ip into untreated mice. Each mouse received the equivalent of half a brain. Thereafter, life span was monitored and, using inoculum-response data as a base of comparison, estimates were made of the numbers of viable cells in treated and control brains.
# [2] = system: Human Colon Adenocarcinoma CX-1; conditions: data from Goldin et al 1981; activity indicated at ≤20; cited from earlier work
# [3] = system: drug resistant cell lines; conditions: background knowledge; cited from earlier work
# adenocarcinoma = conditions: background; cited from earlier work
# [4] = Toxicity / maximum tolerated dosage in mice; format: in vivo; conditions: mouse, in vivo, single QD day 1 ip, read-out: Max. tolerated dosage
# Method: In Example N other compounds of the invention were tested against L1210 cells. […] Activity in Table 14-a is tabulated as both increases in life span and as cells surviving treatment and that in table 14-b as T/C.
# [5] = Solubility (maximum solubility); format: physicochemical
# L1210 cells [6] = experiment: Life span of BDF1 mice inoculated ip with 10^6 L1210 leukemia cells; format: in vivo, mouse
# Method: As illustrative examples of use of the compounds of the invention the following examples are given. […] These standard tests utilize protocols developed under the auspices of the Developmental Therapeutics Program, Division of Cancer Treatment, National Cancer Institute, Bethesda, Md., U.S.A. Except as otherwise indicated the tests conform to these protocols and are evaluated utilizing criteria defined by the protocols.
# (§1) Values below 25% are considered capable of producing effective therapy, those below 10% are considered good and those below 5% are considered very good. This expresses the percent of the cells which survived treatment based upon the original cells in the inoculum. Those tests expressed as increases in life span (% ILS) indicate the increased life span of the drug treated group compared to a control group.
# As an indicator of reproducible activity, compounds of the invention and other known cancer chemotherapeutic agents were screened against L1210 lymphoid leukemia in vivo utilizing the mouse as a test species. Normal NCI protocols for this test require 10^5 seed cells of the L1210 cell line.
# Cytosine Arabinoside must be given every three hours.
# Mice were inoculated intraperitoneally on day 0 with a million cells of murine leukemia L1210. Drug was given qd days 1, 4 and 7. Increased life span is the mean increase in the treated group presented as a percentage of the mean life span of control mice.
# Mice were inoculated intraperitoneally on day 0 with a million cells of murine leukemia L1210. Drugs were given qd days 1, 3, 5 and 7. Increased life span is presented as a percentage of the mean life span of control mice.
# L1210 cells [7] = experiment: L1210 cells surviving treatment (% of original inoculum); format: in vivo, mouse; conditions: single QD day 1 ip
# Source text: as §1
# As an indicator of reproducible activity, compounds of the invention and other known cancer chemotherapeutic agents were screened against L1210 lymphoid leukemia in vivo utilizing the mouse as a test species. Normal NCI protocols for this test require 10^5 seed cells of the L1210 cell line. However for the purposes of tests with the L1210 cell line in testing the compounds of the invention for antitumor activity, a log greater, i.e. 10^6 cells were utilized.
# Tables 2-a and 2-b illustrate a dose response for Compound 19 against L1210 inoculated mice expressed as both increased life span compared to control and as the number of cells of the original inoculum surviving drug treatment. As is evident from the various regimens of drug treatment shown in Tables 2-a and 2-b, effective therapeutic effects are noted and a dose response to Compound 19 is evident. […] Cytosine Arabinoside must be given every three hours. Test results are given utilizing standard protocols based on mean survival time and are expressed as T/C percentages (treated animals/control animals).
# [8] = system: L1210/6MP, 6TG, 6TGR cells; experiment: Life span of mice inoculated with L1210 resistant to 6MP, 6TG, 6TGR; format: in vivo, mouse; conditions: for activity against drug resistant cells (words): mouse, in vivo
# [9] = system: drug resistant cell lines; experiment: Generation of drug resistant cell lines
smiles,measurement,setting,value
Sc1ncnc2nc[nH]c12 [6-Mercaptopurine],Residual cells (% of control brain),L1210 cells [1],37%
same,Activity rating δT/δC,[2],99
same,inducement of drug resistant cell lines,[3],inducement of drug resistant cell line occurs
same,activity against adenocarcinoma,adenocarcinoma,highly active against adenocarcinoma
"NSc1nc(N)nc2nc[nH]c12 [Compound 2, 2-Aminopurine-6-sulfenamide]",MTD,"[4]; ip, DMSO vehicle, BDF1 mice",37 mg/kg
same,MTD,"[4]; ip, NaOH vehicle, BDF1 mice",104 mg/kg
"NSc1ncnc2c1ncn2[C@@H]1O[C@H](CO)[C@@H](O)[C@H]1O [Compound 6, 9-β-D-Ribofuranosyl-9H-purine-6-sulfenamide]",Max. sol. dosage,[5],480 mg/kg
same,MTD,"[4]; ip, L1210-inoculated BDF1 mice",480 mg/kg
"NS(=O)(=O)c1ncnc2c1ncn2[C@@H]1O[C@H](CO)[C@@H](O)[C@H]1O [Compound 8, 9-β-D-Ribofuranosyl-9H-purine-6-sulfonamide]",Max. sol. dosage,[5],480 mg/kg
same,MTD,"[4]; ip, L1210-inoculated BDF1 mice",173 mg/kg
"NS(=O)(=O)c1ncnc2c1ncn2[C@@H]1O[C@H](CO)[C@@H](O)[C@@H]1O [Compound 12, 9-β-D-Arabinofuranosyl-9H-purine-6-sulfonamide]",Max. sol. dosage,[5],173 mg/kg
same,MTD,"[4]; ip, L1210-inoculated BDF1 mice",173 mg/kg
"NSc1ncnc2c1ncn2[C@H]1C[C@H](O)[C@@H](CO)O1 [Compound 14, 9-(2-Deoxy-β-D-erythro-pentofuranosyl)-9H-purine-6-sulfenamide]",Max. sol. dosage,[5],800 mg/kg
same,MTD,"[4]; ip, L1210-inoculated BDF1 mice",288 mg/kg
"N[S+]([O-])c1ncnc2c1ncn2[C@H]1C[C@H](O)[C@@H](CO)O1 (stereo partly drawn) [Compound 15, 9-(2-Deoxy-β-D-erythro-pentofuranosyl)-9H-ourine-6-sulfinamide]",% ILS,L1210 cells [6]; single QD day 1 ip,33%
same,Cells surviving treatment (% of day 0 innoc.),L1210 cells [7],16%
same,Max. sol. dosage,[5],800 mg/kg
same,MTD,"[4]; ip, L1210-inoculated BDF1 mice",104 mg/kg
"NS(=O)(=O)c1ncnc2c1ncn2[C@H]1C[C@H](O)[C@@H](CO)O1 [Compound 16, 9-(2-Deoxy-β-D-erythro-pentofuranosYl)-9H-purine-6-sulfonamide]",Max. sol. dosage,[5],800 mg/kg
same,MTD,"[4]; ip, L1210-inoculated BDF1 mice",173 mg/kg
"NSc1nc(N)nc2c1ncn2[C@@H]1O[C@H](CO)[C@@H](O)[C@H]1O [Compound 18, 2-amino-9-β-D-ribofuranosyl-9H-purine-6-sulfenamide]",oral activity (words),L1210 cells [6],Oral activity is seen
same,"Activity against I.P. L1210 cells, T/C","L1210 cells [6]; oral 8 mg/kg, qd day 1",147.0%
same,"Activity against I.P. L1210 cells, T/C","L1210 cells [6]; oral 13 mg/kg, qd day 1",147.0%
same,"Activity against I.P. L1210 cells, T/C","L1210 cells [6]; oral 22 mg/kg, qd day 1",153.0%
same,% ILS,"L1210 cells [6]; single agent day 1, Compound 19 173 mg/kg, Compound 18 22 mg/kg (Table 12)",51%
same,intracranial activity,L1210 cells [1],active intracranially
same,"Activity against I.C. L1210 cells, Cell Kill",L1210 cells [1],57.3 x
same,crossing of blood brain barrier / CNS penetration (words),L1210 cells [1],effectively cross the blood brain barrier
same,"Activity against I.P. L1210 cells resistant to 6MP, 6TG, 6TGR, T/C","[8]; 22 mg/kg, qd day 1",93.8%
same,activity against drug resistant cells (words),[8],shows no activity
same,Max. sol. dosage,[5],22 mg/kg
same,MTD,"[4]; ip, L1210-inoculated BDF1 mice",22 mg/kg
same,generation of drug resistant cell lines (words),[9],does generate drug resistant cell lines; also recorded: generates drug resistant cells
"Nc1nc(S(N)(=O)=O)c2ncn([C@@H]3O[C@H](CO)[C@@H](O)[C@H]3O)c2n1 [Compound 20, 2-amino-9-β-D-ribofuranosyl-9H-purine-6-sulfonamide]",oral activity (words),L1210 cells [6],not present
same,"Activity against I.P. L1210 cells, T/C","L1210 cells [6]; oral 22 mg/kg, bid days 1,4,7",103.3%
same,"Activity against I.P. L1210 cells, T/C","L1210 cells [6]; oral 37 mg/kg, bid days 1,4,7",103.3%
same,"Activity against I.P. L1210 cells, T/C","L1210 cells [6]; oral 62 mg/kg, bid days 1,4,7",103.3%
same,oral activity (words),L1210 cells [6]; listed as 6-sulfonamide analog,lack of oral activity
same,intracranial activity,L1210 cells [1],no intracranial activity is seen
same,"Activity against I.C. L1210 cells, Cell Kill",L1210 cells [1],0.0 x
same,crossing of blood brain barrier / CNS penetration (words),L1210 cells [1],lack of oral activity and CNS penetration
same,"Activity against I.P. L1210 cells resistant to 6MP, 6TG, 6TGR, T/C","[8]; 22 mg/kg, bid days 1,4,7",106.7%
same,"Activity against I.P. L1210 cells resistant to 6MP, 6TG, 6TGR, T/C","[8]; 37 mg/kg, bid days 1,4,7",130.0%
same,"Activity against I.P. L1210 cells resistant to 6MP, 6TG, 6TGR, T/C","[8]; 62 mg/kg, bid days 1,4,7",163.3%
same,activity against drug resistant cells (words),[8],active
same,Max. sol. dosage,[5],62 mg/kg
same,MTD,"[4]; ip, L1210-inoculated BDF1 mice",62 mg/kg
"NSc1nc(N)nc2c1ncn2[C@H]1C[C@H](O)[C@@H](CO)O1 [Compound 22, 2-Amino-9-(2-deoxy-β-D-erythro-pentofuranosyl)-9H-purine-6-sulfenamide]",Max. sol. dosage,[5],173 mg/kg
same,MTD,"[4]; ip, L1210-inoculated BDF1 mice",173 mg/kg
"Nc1nc([S+](N)[O-])c2ncn([C@H]3C[C@H](O)[C@@H](CO)O3)c2n1 (stereo partly drawn) [Compound 23, 2-amino-9-(2-deoxy-β-D-erythro-pentofuranosyl)-9H-purine-6-sulfinamide]",in vivo antitumor activity,"L1210 cells [6]; mouse, in vivo",good activity
same,Max. sol. dosage,[5],480 mg/kg
same,water solubility,[5],increased water solubility
same,MTD,"[4]; ip, L1210-inoculated BDF1 mice",173 mg/kg
"Nc1nc(S(N)(=O)=O)c2ncn([C@H]3C[C@H](O)[C@@H](CO)O3)c2n1 [Compound 24, 2-Amino-9-(2-deoxy-β-D-erythro-pentofuranosyl)-9H-purine-6-sulfonamide]",Max. sol. dosage,[5],480 mg/kg
same,MTD,"[4]; ip, L1210-inoculated BDF1 mice",288 mg/kg
"NSc1nc(N)nc2c1ncn2[C@@H]1O[C@@H]2COP(=O)(O)O[C@H]2[C@H]1O [Compound 29, 2-Amino-9-β-D-ribofuranosylpurine-6-sulfenamide 3',5'-cyclic phosphate]",% ILS,L1210 cells [6]; single QD day 1 ip,59%
same,Cells surviving treatment (% of day 0 innoc.),L1210 cells [7],1.7%
same,Max. sol. dosage,[5]; in water,480 mg/kg
same,MTD,[4]; L1210-inoculated BDF1 mice,480 mg/kg
"Nc1nc([S+](N)[O-])c2ncn([C@@H]3O[C@@H]4COP(=O)(O)O[C@H]4[C@H]3O)c2n1 (stereo partly drawn) [Compound 30, 2-Amino-9-β-D-ribofuranosylpurine-6-sulfinamide 3',5'-cyclic phosphate]",% ILS,L1210 cells [6]; single QD day 1 ip,59%
same,Cells surviving treatment (% of day 0 innoc.),L1210 cells [7],1.7%
same,Max. sol. dosage,[5]; in water,288 mg/kg
same,MTD,[4]; L1210-inoculated BDF1 mice,288 mg/kg
"NSc1nc(N)nc2c1ccn2[C@H]1C[C@H](O)[C@@H](CO)O1 [Compound 38, 2-Amino-7-(2-deoxy-β-D-erythro-pentofuranosyl)pyrrolo[2,3-d]pyrimidine-4-sulfenamide]",Max. sol. dosage,[5],173 mg/kg
same,MTD,"[4]; ip, L1210-inoculated BDF1 mice",173 mg/kg
Nc1ccn([C@@H]2O[C@H](CO)[C@@H](O)[C@@H]2O)c(=O)n1 [Cytosine Arabinoside],Residual cells (% of control brain),L1210 cells [1],15%
same,Activity rating δT/δC,[2],73
same,inducement of drug resistant cell lines,[3],inducement of drug resistant cell line occurs
